Laboratory results: patent US8653263B2 (Janssen Pharmaceutica, priority 2009, dated 2014)
pKi: −log10 of the molar value.

Molecular target: human orexin-2 receptor (Homo sapiens (Human), UniProt O43614)
Assay: Human orexin 2 receptor radioligand binding ([3H]-EMPA competition)
Settings: HEK293 cells stably expressing human orexin-2 receptor; [3H]-EMPA 5 nM final; apparent Ki=IC50/(1+C/Kd), Kd=2 nM; read-out: OR 2 Ki

Chain of human orexin-2 receptor (O43614 whole entry): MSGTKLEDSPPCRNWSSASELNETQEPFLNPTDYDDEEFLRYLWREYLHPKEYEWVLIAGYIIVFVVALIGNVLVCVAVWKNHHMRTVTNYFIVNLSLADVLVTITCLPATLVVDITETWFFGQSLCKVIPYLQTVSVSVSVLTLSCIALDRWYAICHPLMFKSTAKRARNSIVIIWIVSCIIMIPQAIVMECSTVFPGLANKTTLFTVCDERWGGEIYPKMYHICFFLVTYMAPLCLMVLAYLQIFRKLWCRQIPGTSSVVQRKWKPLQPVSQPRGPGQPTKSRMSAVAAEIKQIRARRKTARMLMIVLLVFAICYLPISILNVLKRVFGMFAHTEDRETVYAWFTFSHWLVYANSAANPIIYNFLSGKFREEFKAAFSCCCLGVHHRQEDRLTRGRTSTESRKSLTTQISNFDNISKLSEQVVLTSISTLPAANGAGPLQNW

Compound	pKi
COc1ccc(C(=O)N2CC3CN(c4nc5ccccc5s4)CC3C2)c(OC)c1 (stereo not shown) [Example 17, 2-{5-[(2,4-Dimethoxyphenyl)carbonyl]hexahydropyrrolo[3,4-c]pyrrol-2(1H)-yl}-1,3-benzothiazole]	6.14
O=C(c1ccccc1-n1cccn1)N1CC2CN(c3cnc4ccccc4n3)CC2C1 (stereo not shown) [Example 18, 2-[5-{[2-(1H-Pyrazol-1-yl)phenyl]carbonyl}hexahydropyrrolo[3,4-c]pyrrol-2(1H)-yl]quinoxaline]	6.28
O=C(c1cccc2c1OCCO2)N1CC2CN(c3nccc(-c4ccccc4)n3)CC2C1 (stereo not shown) [Example 21, 2-(2,3-Dihydro-1,4-benzodioxin-5-ylcarbonyl)-5-(4-phenylpyrimidin-2-yl)octahydropyrrolo[3,4-c]pyrrole]	6.45
O=C(c1ccccc1-n1cccn1)N1CC2CN(c3nccc(-c4ccccc4)n3)CC2C1 (stereo not shown) [Example 23, 2-(4-Phenylpyrimidin-2-yl)-5-{[2-(1H-pyrazol-1-yl)phenyl]carbonyl}octahydro-pyrrolo[3,4-c]pyrrole]	6.44
O=C(c1ccccc1-n1cccc1)N1CC2CN(c3nccc(-c4ccccc4)n3)CC2C1 (stereo not shown) [Example 24, 2-(4-Phenylpyrimidin-2-yl)-5-{[2-(1H-pyrrol-1-yl)phenyl]carbonyl}octahydro-pyrrolo[3,4-c]pyrrole]	6.38
N#Cc1ccccc1C(=O)N1CC2CN(c3cnc4ccccc4n3)CC2C1 (stereo not shown) [Example 26, 2-(5-Quinoxalin-2-yl-hexahydro-pyrrolo[3,4-c]pyrrole-2-carbonyl)-benzonitrile]	5.05
O=C(c1ccccc1-n1cccc1)N1CC2CN(c3cnc4ccccc4n3)CC2C1 (stereo not shown) [Example 27, 2-[5-{[2-(1H-Pyrrol-1-yl)phenyl]carbonyl}hexahydropyrrolo[3,4-c]pyrrol-2(1H)-yl]quinoxaline]	6.13
O=C(c1ccccc1-c1ccc(F)cc1)N1CC2CN(c3cnc4ccccc4n3)CC2C1 (stereo not shown) [Example 28, 2-{5-[(4′-Fluorobiphenyl-2-yl)carbonyl]hexahydropyrrolo[3,4-c]pyrrol-2(1H)-yl}quinoxaline]	6.24
Cc1ccccc1C(=O)N1CC2CN(c3cnc4ccccc4n3)CC2C1 (stereo not shown) [Example 30, 2-{5-[(2-Methylphenyl)carbonyl]hexahydropyrrolo[3,4-c]pyrrol-2(1H)-yl}quinoxaline]	6.10
O=C(c1ccccc1-c1ccccc1)N1CC2CN(c3nccc(-c4ccco4)n3)CC2C1 (stereo not shown) [Example 31, 2-(Biphenyl-2-ylcarbonyl)-5-(4-furan-2-ylpyrimidin-2-yl)octahydropyrrolo[3,4-c]pyrrole]	6.37
CCc1ccccc1C(=O)N1CC2CN(c3cnc4ccccc4n3)CC2C1 (stereo not shown) [Example 35, 2-{5-[(2-Ethylphenyl)carbonyl]hexahydropyrrolo[3,4-c]pyrrol-2(1H)-yl}quinoxaline]	6.14
O=C(c1ccccc1-c1ccccc1)N1CC2CN(c3nccc(-c4cccs4)n3)CC2C1 (stereo not shown) [Example 38, 2-(Biphenyl-2-ylcarbonyl)-5-(4-thiophen-2-ylpyrimidin-2-yl)octahydropyrrolo[3,4-c]pyrrole]	6.29
Cc1cc(C)nc(N2CC3CN(C(=O)c4ccccc4-c4nccn4C)CC3C2)n1 (stereo not shown) [Example 39, [5-(4,6-Dimethyl-pyrimidin-2-yl)-hexahydro-pyrrolo[3,4-c]pyrrol-2-yl]-[2-(1-methyl-1H-imidazol-2-yl)-phenyl]-methanone]	5.05
O=C(c1ccccc1-c1cccc(Cl)c1)N1CC2CN(c3cnc4ccccc4n3)CC2C1 (stereo not shown) [Example 41, 2-{5-[(3′-Chlorobiphenyl-2-yl)carbonyl]hexahydropyrrolo[3,4-c]pyrrol-2(1H)-yl}quinoxaline]	6.45
O=C(c1ccccc1Br)N1CC2CN(c3cnc4ccccc4n3)CC2C1 (stereo not shown) [Example 42, 2-{5-[(2-Bromophenyl)carbonyl]hexahydropyrrolo[3,4-c]pyrrol-2(1H)-yl}quinoxaline]	6.21

Compounds with a higher pKi, results first:

pKi	Compound
6.52	COc1ccc(C(=O)N2CC3CN(c4nc5ccc(F)cc5s4)CC3C2)c(OC)c1 (stereo not shown) [Example 16, 2-{5-[(2,4-Dimethoxyphenyl)carbonyl]hexahydropyrrolo[3,4-c]pyrrol-2(1H)-yl}-6-fluoro-1,3-benzothiazole]
7.62	O=C(c1ccccc1-c1cccs1)N1CC2CN(c3cnc4ccccc4n3)CC2C1 (stereo not shown) [Example 19, 2-{5-[(2-Thiophen-2-ylphenyl)carbonyl]hexahydropyrrolo[3,4-c]pyrrol-2(1H)-yl}quinoxaline]
7.15	O=C(c1ccccc1-c1cccs1)N1CC2CN(c3nccc(-c4ccccc4)n3)CC2C1 (stereo not shown) [Example 22, 2-(4-Phenylpyrimidin-2-yl)-5-[(2-thiophen-2-ylphenyl)carbonyl]octahydro-pyrrolo[3,4-c]pyrrole]
6.96	Cc1ccc2ccccc2c1C(=O)N1CC2CN(c3nccc(-c4ccccc4)n3)CC2C1 (stereo not shown) [Example 25, 2-[(2-Methylnaphthalen-1-yl)carbonyl]-5-(4-phenylpyrimidin-2-yl)octahydropyrrolo[3,4-c]pyrrole]
6.87	O=C(c1ccccc1-c1cccc(F)c1)N1CC2CN(c3cnc4ccccc4n3)CC2C1 (stereo not shown) [Example 29, 2-{5-[(3′-Fluorobiphenyl-2-yl)carbonyl]hexahydropyrrolo[3,4-c]pyrrol-2(1H)-yl}quinoxaline]
7.33	Cc1ccnc(N2CC3CN(C(=O)c4ccccc4-c4cccs4)CC3C2)n1 (stereo not shown) [Example 32, 2-(4-Methylpyrimidin-2-yl)-5-[(2-thiophen-2-ylphenyl)carbonyl]octahydro-pyrrolo[3,4-c]pyrrole]
6.60	O=C(c1ccccc1-c1cccs1)N1CC2CN(c3ccc4ccccc4n3)CC2C1 (stereo not shown) [Example 33, 2-{5-[(2-Thiophen-2-ylphenyl)carbonyl]hexahydropyrrolo[3,4-c]pyrrol-2(1H)-yl}quinoline]
7.10	O=C(c1ccccc1-c1cccs1)N1CC2CN(c3nccc(-c4ccco4)n3)CC2C1 (stereo not shown) [Example 34, 2-(4-Furan-2-ylpyrimidin-2-yl)-5-[(2-thiophen-2-ylphenyl)carbonyl]octahydro-pyrrolo[3,4-c]pyrrole]
6.74	O=C(c1ccccc1-c1cccs1)N1CC2CN(c3nccc(-c4cccs4)n3)CC2C1 (stereo not shown) [Example 37, 2-[(2-Thiophen-2-ylphenyl)carbonyl]-5-(4-thiophen-2-ylpyrimidin-2-yl)octahydro-pyrrolo[3,4-c]pyrrole]
8.15	Cc1cc(C)nc(N2CC3CN(C(=O)c4ccccc4-c4cccs4)CC3C2)n1 (stereo not shown) [Example 43, 2-(4,6-Dimethylpyrimidin-2-yl)-5-[(2-thiophen-2-ylphenyl)carbonyl]octahydro-pyrrolo[3,4-c]pyrrole]
6.85	Cc1cc(C)nc(N2CC3CN(C(=O)c4ccccc4-c4ccccc4)CC3C2)n1 (stereo not shown) [Example 44, 2-(Biphenyl-2-ylcarbonyl)-5-(4,6-dimethylpyrimidin-2-yl)octahydropyrrolo[3,4-c]pyrrole]
7.44	COc1ccnc(N2CC3CN(C(=O)c4ccccc4-c4cccs4)CC3C2)n1 (stereo not shown) [Example 45, 2-(4-Methoxypyrimidin-2-yl)-5-[(2-thiophen-2-ylphenyl)carbonyl]octahydro-pyrrolo[3,4-c]pyrrole]
6.88	O=C(c1ccccc1-c1cccs1)N1CC2CN(c3nc4ccc(F)cc4s3)CC2C1 (stereo not shown) [Example 46, 6-Fluoro-2-{5-[(2-thiophen-2-ylphenyl)carbonyl]hexahydropyrrolo[3,4-c]pyrrol-2(1H)-yl}-1,3-benzothiazole]
